Reference: paper PMC8658989, “Synthesis and Biological Studies on (KLAKLAK)2-NH2 Analog Containing Unnatural Amino Acid β-Ala and Conjugates with Second Pharmacophore” (Molecules, 2021)
No end group written: not given here.

Legend:
MCF-7 [1] = assay: Antiproliferative activity, MTT dye-reduction assay, MCF-7; type: cell-based, human; conditions: SI = IC50 of MCF-10A/IC50 of MCF-7
Procedure: (§1) The compounds were studied for antiproliferative activity by MTT dye-reduction assay. Cell cultures from different cell lines (MCF-10A, MCF-7 and MDA-MB-231) were incubated with the test substances at a concentration of 15 to 2000 μM for 72 h at 37 °C, 5% CO2 and 95% humidity. The antiproliferative activity expressed in % relative to the negative control was determined.
(§2) The antiproliferative activity testing was performed on cell cultures from several human cell lines using the standard MTT dye-reduction assay, described by Mosmann. The assay is based on the metabolism of the tetrazolium salt 3-(4,5-dimethylthiazol-2-yl)-2,5-diphenyltetrazolium bromide (MTT) to insoluble formazan by mitochondrial reductases. The formazan concentration can be determined spectrophotometrically. The measured absorption is an indicator of cell viability and metabolic activity. The following cell lines were used in the experiments: mammary gland type A adenocarcinoma ER+, PR+ and HER2− (MCF-7); triple-negative breast cancer ER−, PR−, and HER2− (MDA-MB-231); and breast, nontumorigenic epithelial cell line (MCF-10A). The cell lines were routinely grown as monolayers in 75 cm^2 tissue culture flasks under standard conditions (described above). Cells were plated at a density of 1 × 10^3 cells in 100 µL in each well of 96-well flat-bottomed microplates and allowed to adhere for 24 h before treatment with test compounds. A concentration range from 15 to 2000 μM was applied for 72 h. Formazan absorption was registered using a microplate reader at λ = 540 nm. Antiproliferative activities were expressed as IC50 values (concentrations required for 50% inhibition of cell growth), calculated using nonlinear regression analysis (GraphPad Prism 4 Software, https://www.graphpad.com).

MDA-MB-231 [2] = assay: Antiproliferative activity, MTT dye-reduction assay, MDA-MB-231; type: cell-based, human; conditions: SI = IC50 of MCF-10A/IC50 of MDA-MB-231
Procedure: as §1, §2

MCF-10A = system: MCF-10A; set-up: method as in PMID 33567789; conditions: MTT; data already published; ref [25]; read-out: IC50 of Mean ± SD Antiproliferative Activity MCF-10A; cited from earlier work
MCF-7 [3] = system: MCF-7; set-up: method as in PMID 33567789; conditions: MTT; data already published; ref [25]; read-out: IC50 of Mean ± SD Antiproliferative Activity MCF-7; cited from earlier work
MDA-MB-231 [4] = system: MDA-MB-231; set-up: method as in PMID 33567789; conditions: MTT; data already published; ref [25]; read-out: IC50 of Mean ± SD Antiproliferative Activity MDA-MB-231; cited from earlier work

Compound | SI ± SD MCF-7 (selective index) (MCF-7 [1]) | SI ± SD MDA-MB-231 (selective index) (MDA-MB-231 [2]) | IC50 (MCF-10A) [µM] | IC50 (MCF-7 [3]) [µM] | IC50 (MDA-MB-231 [4]) [µM]
CC(C)C[C@H](NC(=O)[C@H](CCCCN)NC(=O)[C@H](C)NC(=O)[C@H](CC(C)C)NC(=O)[C@H](CCCCN)NC(=O)[C@H](CCCCN)NC(=O)[C@H](C)NC(=O)[C@H](CC(C)C)NC(=O)[C@H](CCCCN)NC(=O)[C@H](C)NC(=O)[C@H](CC(C)C)NC(=O)[C@@H](N)CCCCN)C(=O)N[C@@H](C)C(=O)N[C@@H](CCCCN)C(N)=O [Si1, (KLAKLAK)2-NH2] | 1.243 ± 0.052 | 0.206 ± 0.007 | 154 ± 6.53 | 124 ± 8.12 | 746 ± 7.6
KLAKLAK-NH2 [Si6] | – | – | > 2000 | > 2000 | > 2000
